The values that follow come from ChEMBL document CHEMBL3045679, “Microwave-assisted synthesis and pharmacological studies of novel 5-deazaalloxazine derivatives” (2012).

The MIC is the smallest concentration in the dilution series that meets the test's criterion for growth inhibition. Higher therefore signals a less susceptible organism.

In brackets after ≈: the same amount, converted by molar mass. Activity calls are given as the source filed them.

In test [1] the test system is Candida albicans. As to the kind of experiment: Antifungal activity against Candida albicans NCIM 3471 at 10 ug/disk after 72 hr by disk diffusion method. The class given is functional. To be noted: NCIM 3471, 72 h, read-out: DIZ.
Test [2] deals with Rhodotorula mucilaginosa. In words: Antifungal activity against Rhodotorula mucilaginosa NCIM 3174 at 10 ug/disk after 72 hr by disk diffusion method. The class given is functional. To be noted: NCIM 3174, 72 h, read-out: DIZ. On the technique in general: A growth-free zone around the sample is the usual read-out of agar diffusion tests.
Test [3] relates to Aspergillus niger. In words: Antifungal activity against Aspergillus niger NCIM 1196 at 10 ug/disk after 72 hr by disk diffusion method. The class given is functional. Conditions: NCIM 1196, 72 h, read-out: DIZ.
The test system of test [4] is Penicillium chrysogenum. As to the kind of experiment: Antifungal activity against Penicillium chrysogenum NCIM 707 at 10 ug/disk after 72 hr by disk diffusion method. To be noted: NCIM 707, 72 h, read-out: DIZ. It counts as functional.
For test [5], the system named is Aspergillus flavus. In words: Antifungal activity against Aspergillus flavus NCIM 535 at 10 ug/disk after 72 hr by disk diffusion method. It counts as functional. To be noted: NCIM 535, 72 h, read-out: DIZ.
Test [6] has as its system Lipomyces lipofer. In words: Antifungal activity against Lipomyces lipofer NCIM 3252 at 10 ug/disk after 72 hr by disk diffusion method. It counts as functional. To be noted: NCIM 3252, 72 h, read-out: DIZ.
Test [7] concerns Rhodotorula mucilaginosa. In words: Antifungal activity against Rhodotorula mucilaginosa NCIM 3174 at 500 ug/disk after 72 hr by disk diffusion method. The class given is functional. Conditions: NCIM 3174, 72 h, read-out: DIZ.
In test [8] the test system is Aspergillus niger. In words: Antifungal activity against Aspergillus niger NCIM 1196 at 1000 ug/disk after 72 hr by disk diffusion method. Conditions: NCIM 1196, 72 h, read-out: DIZ. The class given is functional.
The subject of test [9] is Penicillium chrysogenum. As to the kind of experiment: Antifungal activity against Penicillium chrysogenum NCIM 707 at 1000 ug/disk after 72 hr by disk diffusion method. Conditions: NCIM 707, 72 h, read-out: DIZ. It counts as functional.
Test [10] relates to Bacillus subtilis. In words: Antibacterial activity against Bacillus subtilis NCIM 2063 at 500 ug/disk after 24 hr by disk diffusion method. To be noted: NCIM 2063, 24 h, read-out: DIZ. It counts as functional.
The subject of test [11] is Aspergillus flavus. As to the kind of experiment: Antifungal activity against Aspergillus flavus NCIM 535 at 500 ug/disk after 72 hr by disk diffusion method. Conditions: NCIM 535, 72 h, read-out: DIZ. It counts as functional.
Test [12] has as its system Pseudomonas aeruginosa. As to the kind of experiment: Antibacterial activity against Pseudomonas aeruginosa NCIM 2200 after 24 hr by broth dilution assay. It counts as functional. Conditions: NCIM 2200, 24 h. For orientation: Broth dilution looks for growth in wells or tubes with falling amounts of substance.
The subject of test [13] is Klebsiella aerogenes. As to the kind of experiment: Antibacterial activity against Enterobacter aerogenes NCIM 2239 after 24 hr by broth dilution assay. It counts as functional. To be noted: NCIM 2239, 24 h.
The test system of test [14] is Bacillus subtilis. In words: Antibacterial activity against Bacillus subtilis NCIM 2063 at 1000 ug/disk after 24 hr by disk diffusion method. It counts as functional. To be noted: NCIM 2063, 24 h, read-out: DIZ.
The subject of test [15] is Klebsiella aerogenes. As to the kind of experiment: Antibacterial activity against Enterobacter aerogenes NCIM 2239 at 1000 ug/disk after 24 hr by disk diffusion method. It counts as functional. To be noted: NCIM 2239, 24 h, read-out: DIZ.
In test [16] the test system is Escherichia coli. As to the kind of experiment: Antibacterial activity against Escherichia coli NCIM 2065 at 500 ug/disk after 24 hr by disk diffusion method. Conditions: NCIM 2065, 24 h, read-out: DIZ. It counts as functional.
The test system of test [17] is Streptomyces albus. As to the kind of experiment: Antibacterial activity against Streptomyces albus NCIM 2178 after 24 hr by broth dilution assay. It counts as functional. To be noted: NCIM 2178, 24 h.
The subject of test [18] is Candida albicans. In words: Antifungal activity against Candida albicans NCIM 3471 at 500 ug/disk after 72 hr by disk diffusion method. Conditions: NCIM 3471, 72 h, read-out: DIZ. It counts as functional.
Test [19] concerns Bacillus cereus. As to the kind of experiment: Antibacterial activity against Bacillus cereus NCIM 2155 at 500 ug/disk after 24 hr by disk diffusion method. The class given is functional. Conditions: NCIM 2155, 24 h, read-out: DIZ.
Test [20] deals with Rhodotorula mucilaginosa. In words: Antifungal activity against Rhodotorula mucilaginosa NCIM 3174 at 1000 ug/disk after 72 hr by disk diffusion method. It counts as functional. Conditions: NCIM 3174, 72 h, read-out: DIZ.
Test [21] deals with Aspergillus niger. As to the kind of experiment: Antifungal activity against Aspergillus niger NCIM 1196 at 500 ug/disk after 72 hr by disk diffusion method. The class given is functional.
Test [22] deals with Aspergillus flavus. In words: Antifungal activity against Aspergillus flavus NCIM 535 at 1000 ug/disk after 72 hr by disk diffusion method. The class given is functional. To be noted: NCIM 535, 72 h, read-out: DIZ.
The subject of test [23] is Penicillium chrysogenum. As to the kind of experiment: Antifungal activity against Penicillium chrysogenum NCIM 707 after 72 hr by broth dilution assay. The class given is functional. Conditions: NCIM 707, 72 h.
Test [24] concerns Lipomyces lipofer. As to the kind of experiment: Antifungal activity against Lipomyces lipofer NCIM 3252 after 72 hr by broth dilution assay. The class given is functional. Conditions: NCIM 3252, 72 h.
In test [25] the test system is Pseudomonas aeruginosa. In words: Antibacterial activity against Pseudomonas aeruginosa NCIM 2200 at 500 ug/disk after 24 hr by disk diffusion method. The class given is functional. Conditions: NCIM 2200, 24 h, read-out: DIZ.
For test [26], the system named is Candida albicans. In words: Antifungal activity against Candida albicans NCIM 3471 at 1000 ug/disk after 72 hr by disk diffusion method. It counts as functional. Conditions: NCIM 3471, 72 h, read-out: DIZ.
Test [27] deals with Streptomyces albus. In words: Antibacterial activity against Streptomyces albus NCIM 2178 at 500 ug/disk after 24 hr by disk diffusion method. It counts as functional, organism-based.
Test [28] relates to Aspergillus niger. In words: Antifungal activity against Aspergillus niger NCIM 1196 after 72 hr by broth dilution assay. Conditions: NCIM 1196, 72 h. The class given is functional.
Test [29] deals with Penicillium chrysogenum. As to the kind of experiment: Antifungal activity against Penicillium chrysogenum NCIM 707 at 500 ug/disk after 72 hr by disk diffusion method. The class given is functional. To be noted: NCIM 707, 72 h, read-out: DIZ.
For test [30], the system named is Escherichia coli. As to the kind of experiment: Antibacterial activity against Escherichia coli NCIM 2065 after 24 hr by broth dilution assay. The class given is functional. To be noted: NCIM 2065, 24 h.
Test [31] concerns Bacillus cereus. In words: Antibacterial activity against Bacillus cereus NCIM 2155 after 24 hr by broth dilution assay. The class given is functional. Conditions: NCIM 2155, 24 h.
Test [32] relates to Rhodotorula mucilaginosa. As to the kind of experiment: Antifungal activity against Rhodotorula mucilaginosa NCIM 3174 after 72 hr by broth dilution assay. It counts as functional. To be noted: NCIM 3174, 72 h.
Test [33] deals with Klebsiella aerogenes. In words: Antibacterial activity against Enterobacter aerogenes NCIM 2239 at 500 ug/disk after 24 hr by disk diffusion method. The class given is functional. To be noted: NCIM 2239, 24 h, read-out: DIZ.
Test [34] has as its system Bacillus cereus. In words: Antibacterial activity against Bacillus cereus NCIM 2155 at 1000 ug/disk after 24 hr by disk diffusion method. It counts as functional. Conditions: NCIM 2155, 24 h, read-out: DIZ.
For test [35], the system named is Candida albicans. As to the kind of experiment: Antifungal activity against Candida albicans NCIM 3471 after 72 hr by broth dilution assay. The class given is functional. To be noted: NCIM 3471, 72 h.
Test [36] deals with Lipomyces lipofer. As to the kind of experiment: Antifungal activity against Lipomyces lipofer NCIM 3252 at 500 ug/disk after 72 hr by disk diffusion method. The class given is functional. To be noted: NCIM 3252, 72 h, read-out: DIZ.
For test [37], the system named is Bacillus subtilis. In words: Antibacterial activity against Bacillus subtilis NCIM 2063 after 24 hr by broth dilution assay. The class given is functional. To be noted: NCIM 2063, 24 h.
Test [38] concerns Aspergillus flavus. In words: Antifungal activity against Aspergillus flavus NCIM 535 after 72 hr by broth dilution assay. The class given is functional. Conditions: NCIM 535, 72 h.
In test [39] the test system is Lipomyces lipofer. As to the kind of experiment: Antifungal activity against Lipomyces lipofer NCIM 3252 at 1000 ug/disk after 72 hr by disk diffusion method. It counts as functional. To be noted: NCIM 3252, 72 h, read-out: DIZ.
The subject of test [40] is Escherichia coli. As to the kind of experiment: Antibacterial activity against Escherichia coli NCIM 2065 at 1000 ug/disk after 24 hr by disk diffusion method. Conditions: NCIM 2065, 24 h, read-out: DIZ. It counts as functional.
Test [41] deals with Pseudomonas aeruginosa. As to the kind of experiment: Antibacterial activity against Pseudomonas aeruginosa NCIM 2200 at 1000 ug/disk after 24 hr by disk diffusion method. Conditions: NCIM 2200, 24 h, read-out: DIZ. The class given is functional.
The subject of test [42] is Streptomyces albus. In words: Antibacterial activity against Streptomyces albus NCIM 2178 at 1000 ug/disk after 24 hr by disk diffusion method. It counts as functional. Conditions: NCIM 2178, 24 h, read-out: DIZ.

In the case of `Clc1ccccc1C(c1ccccc1)(c1ccccc1)n1ccnc1` [CLOTRIMAZOLE], the zone of inhibition at 10 µg/disc amounted to 18 mm with Candida albicans [1]; 17 mm in the test with Rhodotorula mucilaginosa [2]; 16 mm in the test on Aspergillus niger [3]; 21 mm in the test on Penicillium chrysogenum [4]; 16 mm in the test on Aspergillus flavus [5]; 18 mm with Lipomyces lipofer [6].

For `O=c1[nH]c(=O)c2cc3ccccc3nc2[nH]1`, the zone of inhibition at 500 µg/disc with Rhodotorula mucilaginosa [7] was 10 mm; with Bacillus subtilis [10], 8 mm; in the test on Aspergillus flavus [11], 11 mm; in the test on Escherichia coli [16], 11 mm; in the test with Candida albicans [18] it was 9 mm; with Bacillus cereus [19], 9 mm. In addition, the zone of inhibition at 500 µg/disc is 10 mm in the test on Pseudomonas aeruginosa [25], 8 mm in the test on Penicillium chrysogenum [29], 8 mm in the test with Klebsiella aerogenes [33] and 9 mm in the test with Lipomyces lipofer [36]. Also, the zone of inhibition at 1000 µg/disc in the test on Aspergillus niger [8] was 10 mm; in the test on Penicillium chrysogenum [9], 13 mm; in the test with Bacillus subtilis [14] it was 11 mm; with Klebsiella aerogenes [15] it was 11 mm; with Rhodotorula mucilaginosa [20], 11 mm; with Aspergillus flavus [22], 14 mm. The zone of inhibition at 1000 µg/disc with Candida albicans [26] stood at 12 mm; in the test with Bacillus cereus [34], 13 mm; with Lipomyces lipofer [39] it was 11 mm; with Escherichia coli [40], 13 mm; with Pseudomonas aeruginosa [41], 14 mm; with Streptomyces albus [42], 13 mm. In addition, the MIC against Pseudomonas aeruginosa [12] was found to be 31.2 µg/mL (≈ 146 µM); in the test on Klebsiella aerogenes [13], 31.2 µg/mL (≈ 146 µM); against Streptomyces albus [17], 31.2 µg/mL (≈ 146 µM); in the test on Penicillium chrysogenum [23], 7.8 µg/mL (≈ 36.6 µM); with Lipomyces lipofer [24], 62.5 µg/mL (≈ 293 µM); against Aspergillus niger [28], 125 µg/mL (≈ 586 µM). The MIC was 3.9 µg/mL (≈ 18.3 µM) against Escherichia coli [30]; 31.2 µg/mL (≈ 146 µM) with Bacillus cereus [31]; 7.8 µg/mL (≈ 36.6 µM) in the test on Rhodotorula mucilaginosa [32]; 15.6 µg/mL (≈ 73.2 µM) in the test on Candida albicans [35]; 15.6 µg/mL (≈ 73.2 µM) in the test on Bacillus subtilis [37]; 3.9 µg/mL (≈ 18.3 µM) against Aspergillus flavus [38]. Besides, the “diameter of the inhibition zone (DIZ)” value in the test on Aspergillus niger [21] and in the test with Streptomyces albus [27] was “inactive” in each case.
